Experimental data: patent US12582697B2, “Antisecretory factor for use in treatment and/or prevention of acute respiratory failure” (LANTMÄNNEN MEDICAL AB, priority 2018, dated 2026)
Where a SMILES comes first, the peptide text is derived from it.

Tested on: adult pigs with experimentally induced ARDS
Assay: ARDS model: adverse side effects on cardiovascular parameters
Type: in vivo, pig
Settings: iv infusion 2 mg/kg, anaesthetized pigs
Method: After ethical approval, 3 months old pigs (body weight 30-35 kg), in all 12, were purchased from a local farm and 2 pigs on 6 occasions brought to the laboratory in the morning on the day for the experiment. […] Upon arrival, the pigs were sedated and thereafter kept fully anaesthetized during the entire experiment until termination late the same day. Tracheostomy was performed and mechanical ventilation performed with a ventilator. This setup is visualized in FIG. 1. Tubes positioned in arteries, veins and via a vein also in the right heart. Equipment was implanted to enable the use of PiCCO instrument (Pulse index, Continuous Cardiac Output=PiCCO) in order to enable exact determination of the total blood volume in the lungs, extra-vascular lung water (EVLW) and cardiac function parameters. Blood pressure transducers were inserted in the pulmonary artery and in a central artery. Arterial blood gasses and additional blood parameters were checked at regular intervals. Oximetry was used to determine hemoglobin oxygen saturation in arterial blood. The core body temperature was kept automatically at desired normal level. EKG was recorded. […]
Treatment with the peptide AF-16 or the vehicle started after the induction of the lung injury (i.e., after the injurious ventilation). […] The PiCCO values were determined once every hour for up to 4 hours after the infusion of the test substance. […]

CC(C)C[C@H](NC(=O)CNC(=O)[C@@H](NC(=O)[C@H](CC(N)=O)NC(=O)[C@H](CC(N)=O)NC(=O)[C@H](CCC(=O)O)NC(=O)[C@@H]1CCCN1C(=O)[C@H](CC(N)=O)NC(=O)[C@H](CO)NC(=O)[C@H](CCCNC(=N)N)NC(=O)[C@@H](NC(=O)[C@H](CCCCN)NC(=O)[C@H](CO)NC(=O)[C@H](Cc1c[nH]cn1)NC(=O)[C@H](CS)NC(=O)[C@@H](N)C(C)C)[C@@H](C)O)C(C)C)C(=O)O [AF-16, VCHSKTRSNPENNVGL] (H-VCHSKTRSNPENNVGL-OH; N-terminus and C-terminus assumed)
adverse side effects on cardiovascular parameters, including blood pressure and heart rates: no adverse side effects could be demonstrated
